Columns and labels:
Assay in all cases: relative viability (nuclei count vs DMSO), 5 days (fraction); higher = more cells survive
VX-702 + Palbociclib = compound: NC(=O)c1ccc(N(C(N)=O)c2c(F)cccc2F)nc1-c1ccc(F)cc1F [VX-702] + CC(=O)c1c(C)c2cnc(Nc3ccc(N4CCNCC4)cn3)nc2n(C2CCCC2)c1=O [Palbociclib] (partner 0.5 µM)
In short: (§1)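 Lung cancer cell lines in 1536-well plates got either a single drug or a fixed anchor-drug dose together with five library-drug doses (not always all listed) in √10 steps, by pin tool, on the day after seeding. Nuclei were counted after 5 days, and relative viability is the treated-to-vehicle ratio of nuclei counts. Values are medians of duplicate plates.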

Dabrafenib + Crizotinib = compound: CC(C)(C)c1nc(-c2cccc(NS(=O)(=O)c3c(F)cccc3F)c2F)c(-c2ccnc(N)n2)s1 [Dabrafenib] + C[C@@H](Oc1cc(-c2cnn(C3CCNCC3)c2)cnc1N)c1c(Cl)ccc(F)c1Cl [Crizotinib] (partner 1 µM)
In short: as §1

VX-702 + Decitabine = compound: NC(=O)c1ccc(N(C(N)=O)c2c(F)cccc2F)nc1-c1ccc(F)cc1F [VX-702] + Nc1ncn([C@H]2C[C@H](O)[C@@H](CO)O2)c(=O)n1 [Decitabine] (partner 2 µM)
In short: as §1

Dabrafenib + Linsitinib = compound: CC(C)(C)c1nc(-c2cccc(NS(=O)(=O)c3c(F)cccc3F)c2F)c(-c2ccnc(N)n2)s1 [Dabrafenib] + C[C@]1(O)C[C@@H](c2nc(-c3ccc4ccc(-c5ccccc5)nc4c3)c3c(N)nccn32)C1 [Linsitinib] (partner 1 µM)
In short: as §1

Cell Line	relative viability (VX-702 + Palbociclib; first compound 0.02 µM)	relative viability (VX-702 + Palbociclib; first compound 0.2 µM)	relative viability (VX-702 + Palbociclib; first compound 0.6325 µM)	relative viability (VX-702 + Palbociclib; first compound 2 µM)	relative viability (Dabrafenib + Crizotinib; first compound 0.003 µM)	relative viability (Dabrafenib + Crizotinib; first compound 0.009487 µM)	relative viability (Dabrafenib + Crizotinib; first compound 0.03 µM)	relative viability (Dabrafenib + Crizotinib; first compound 0.09487 µM)	relative viability (Dabrafenib + Crizotinib; first compound 0.3 µM)	relative viability (VX-702 + Decitabine; first compound 0.02 µM)	relative viability (VX-702 + Decitabine; first compound 0.2 µM)	relative viability (VX-702 + Decitabine; first compound 0.6325 µM)	relative viability (VX-702 + Decitabine; first compound 2 µM)	relative viability (Dabrafenib + Linsitinib; first compound 0.003 µM)	relative viability (Dabrafenib + Linsitinib; first compound 0.009487 µM)	relative viability (Dabrafenib + Linsitinib; first compound 0.03 µM)	relative viability (Dabrafenib + Linsitinib; first compound 0.09487 µM)	relative viability (Dabrafenib + Linsitinib; first compound 0.3 µM)
201T	0.349	0.345	0.347	0.336	1.04	1.01	0.939	1.03	1.03	0.86	0.838	0.871	0.886	0.918	1.07	0.941	1.03	1.05
HCC-44	1.01	1	0.955	0.98	0.769	0.785	0.847	0.718	0.794	1	0.969	1.02	0.924	0.624	0.706	0.822	0.605	0.701
ABC-1	0.569	0.633	0.826	0.8		1.11	1.02	0.961	1.34	0.923	1.09	1.09	1.31		0.81	0.841	0.892	0.861
HARA	0.278	0.227	0.226	0.254	0.975	1.04	1.01	0.855	1.11	0.567		0.512	0.523	0.973	0.869	0.841	0.905	1.3
A-427	0.541	0.52	0.537	0.526		0.883	0.772	0.87	1.03	0.623	0.503	0.54	0.542		1.13	1	0.949	1.1
NCI-H1793	0.294		0.314	0.269						0.545		0.449	0.458	0.832	1.53	0.702	0.781	0.914
NCI-H1650	0.325	0.35	0.445	0.297	1.04	1.21	0.907	0.995	1.11	0.477	0.422	0.44	0.46					
CAL-12T	0.427	0.507	0.496	0.347	0.502	0.752	0.728	0.582	0.791					0.744	0.901	0.786	0.777	0.963
NCI-H1703					1.09	0.76	0.584	0.609	0.729					0.335	1.12	0.75	0.834	1.18
Calu-6					0.681	0.833	0.786	0.555	0.577					0.939	0.951	0.72	0.737	0.675
ChaGo-K-1	0.942	0.881	0.893	0.946		1.16	1.15	1.03	1.12	0.532	0.493	0.516	0.525					
NCI-H1395	0.565	0.531	0.654	0.623						0.664	0.714	0.728	0.64		1.07	1.05	1.07	0.854
NCI-H522	1.12	0.988	0.83	1.08						0.684	0.775	0.646	0.753					
NCI-H1299					1.01	0.91	0.961	0.882	0.806					0.941	0.959	0.798	0.743	0.625
IA-LM					1.01	0.756	0.702	0.628	0.46					0.443	0.575	0.547	0.283	0.424
NCI-H596					1.48	1.06	0.86	0.954	0.932	1.3	1.55	1.15	1.16	1	1.14	0.796	1.08	1.14
NCI-H2170	0.355	0.374	0.42	0.369	1.28	1.24	0.96	1.02	1.27	0.444	0.415	0.466	0.486					
EBC-1						0.193	0.207	0.196	0.245					0.854	0.867	0.679	0.378	0.309
NCI-H1563					0.865	0.933	0.868	0.908	0.953					1.16	1.18	1.16	1.2	1.39
NCI-H2342	0.511	0.606	0.512	0.539						0.788	0.821	0.697	0.754					
A549					0.805	0.763	0.887	0.737	0.768	0.303	0.249	0.332	0.177		0.549	0.374	0.697	0.568
